Measurements taken from patent US20240246979A1, “cGAS INHIBITORS” (Eli Lilly and Company, priority 2022, published 2024).

How the values were obtained:
cGAS [1] = target: T1, cGAS (Homo sapiens, UniProt Q8N884); assay: Cellular assay to measure cGAS activity (IFNb AlphaLISA in THP1 cells stimulated by RDG-Adenovirus-GFP); format: cell-based; set-up: host or cells: THP1 cells differentiated with PMA and stimulated with RDG-Adenovirus-GFP; conditions: PMA-differentiated THP1 cells, RDG-Adenovirus-GFP at 1000 MOI; inhibition of IFNb production as marker for cGAS activity
T1 sequence (Q8N884 whole entry): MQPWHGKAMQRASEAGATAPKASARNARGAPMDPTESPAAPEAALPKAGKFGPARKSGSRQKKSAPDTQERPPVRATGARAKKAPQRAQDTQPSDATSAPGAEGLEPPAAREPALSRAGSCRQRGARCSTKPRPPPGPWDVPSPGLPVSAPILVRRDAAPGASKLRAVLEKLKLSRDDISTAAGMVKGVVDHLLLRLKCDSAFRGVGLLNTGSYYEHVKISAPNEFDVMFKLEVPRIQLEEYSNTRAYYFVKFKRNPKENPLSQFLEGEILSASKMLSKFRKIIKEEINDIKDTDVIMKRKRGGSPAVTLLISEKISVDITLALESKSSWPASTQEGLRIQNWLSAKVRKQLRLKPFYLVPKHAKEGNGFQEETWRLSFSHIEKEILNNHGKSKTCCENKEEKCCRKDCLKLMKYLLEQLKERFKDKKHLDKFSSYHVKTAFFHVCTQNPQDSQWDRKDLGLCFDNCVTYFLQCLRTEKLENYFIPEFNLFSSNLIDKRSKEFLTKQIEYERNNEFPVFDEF
Procedure: Cellular assay to measure cGAS activity: Use THP1 cell line from ATCC to determine inhibition of cGAS activity by test compounds in human cells. Plate cells on 96-well plates at 0.2×10^6/well and differentiate with phorbol myristate acetate (PMA) at 37° C./5% CO2. After 24 hours, replace PMA containing media with media lacking PMA and further incubate overnight. Stimulate cells were then by RDG-Adenovirus-GFP (Vector Biolabs #1768) at 1000 MOI for 4 hours prior to the addition of test compounds. After overnight incubation, transfer 10 μL of the media from each well to a new plate for IFNb analysis as a marker for cGAS activity. Measure quantification of IFNb with an IFNb AlphaLISA Detection kit (Perkin Elmer AL3133F) by mixing the acceptor beads with the cell supernatant followed by the addition of the biotinylated antibody and donor beads. Measure the relative fluorescence signal produced from the interaction of the donor and acceptor beads by a PHERAStar AlphaLISA protocol and evaluate the inhibitory effect of a compound by plotting specific inhibition of IFNb production against log concentration of the test compound. Calculate IC50 values using a 4-parameter non-linear logistic equation (y=(S0+((SInf−S0)/(1+((qAC50/x)^nHill))))).

cGAS [2] = target: T1, cGAS; assay: In vitro inhibition assay of cGAS activity (cGAMP production, RapidFire mass spectrometry); format: biochemical; set-up: Insert cDNA encoding full-length of human cGAS; His6; made in house; host or cells: E. coli BL21(DE3); conditions: 10 nM recombinant human cGAS, 60 nM 75-bp dsDNA, 50 μM ATP, 50 μM GTP, 3 hrs
Procedure: Expression and Purification of Recombinant cGAS Protein: Insert cDNA encoding full-length of human cGAS into a modified bacterial expression vector containing an in-frame His6-tag. Induce the E. coli strain BL21(DE3) harboring the plasmid with 1 mM IPTG (Isopropyl β-D-1-thiogalactopyranoside) at 18° C. overnight. Purify the His6-tagged cGAS protein over HISpur Ni-NTA resin in the presence of benzonase and RNase followed by Superdex 200 size exclusion chromatography with storage buffer (50 mM Tris-HCl pH 7.5, 300 mM NaCl, 1 mM DTT, 10% glycerol).
In vitro inhibition assay of cGAS activity: Add a 5 μL mixture containing 10 mM Tris-Cl pH 7.5, 50 mM NaCl, 5 mM MgCl2, 1 mM DTT, 0.01% Triton X-100, 60 nM 75-bp dsDNA, 50 μM ATP, 50 μM GTP, 10 nM of recombinant human cGAS, and serial dilutions of a test compound in DMSO to a 384-well plate and incubate at ambient temperature for 3 hrs. Quench the reaction by the addition of 100 μL of stop solution containing 0.1% formic acid and 0.1 μM internal standard (3′3′-difluoro cGAMP). Measure the amount of cGAMP produced by RapidFire 365 mass spectrometry and evaluate inhibitory effect of a compound by plotting percent specific inhibition of cGAMP production against log concentration of the test compound. Calculate IC50 values using a 4-parameter non-linear logistic equation (y=(S0+((Sinf−S0)/(1+((qAC50/x)^nHill))))).

Compound: C[C@H]1C(=O)NCCc2[nH]c3c(Cl)c(Cl)cc(N[C@@H]4CCOC4)c3c21 (single isomer, unassigned) [Example 64]
- IC50 (cGAS [1]): 2420 nM
- IC50 (cGAS [2]): 37.9 nM

Compound: CC(=O)OCCCOc1cc(Cl)c(Cl)c2[nH]c3c(c12)C(C)C(=O)NCC3 (racemic) [Example 13, 3-((7,8-Dichloro-1-methyl-2-oxo-1,2,3,4,5,6-hexahydroazepino[4,5-b]indol-10-yl)oxy)propyl acetate]
- IC50 (cGAS [1]): 582 nM
- IC50 (cGAS [2]): 9050 nM

Compound: C[C@@H]1C(=O)NC[C@H](C)c2[nH]c3c(Cl)c(Cl)cc(CC#N)c3c21 (single isomer, unassigned) [Example 152]
- IC50 (cGAS [1]): 5310 nM
- IC50 (cGAS [2]): 948 nM

Compound: COC(=O)CC1CNC(=O)Cc2c1[nH]c1c(Cl)c(Cl)cc(CC#N)c21 (stereo not drawn) [Example 176, Methyl 2-(7,8-dichloro-10-(cyanomethyl)-2-oxo-1,2,3,4,5,6-hexahydroazepino[4,5-b]indol-5-yl)acetate]
- IC50 (cGAS [1]): 7110 nM
- IC50 (cGAS [2]): 38.9 nM

Compound: CC1C(=O)NCCc2c1c1c(OCCCO)cc(Cl)c(Cl)c1n2C (stereo not drawn) [Example 77, 7,8-Dichloro-10-(3-hydroxypropoxy)-1,6-dimethyl-3,4,5,6-tetrahydroazepino[4,5-b]indol-2(1H)-one]
- IC50 (cGAS [1]): 843 nM
- IC50 (cGAS [2]): 14.1 nM

Compound: O=C1Cc2c([nH]c3c(Cl)c(Cl)cc(OCCCO)c23)CCN1 [Example 23, 7,8-Dichloro-10-(3-hydroxypropoxy)-3,4,5,6-tetrahydroazepino[4,5-b]indol-2(1H)-one]
- IC50 (cGAS [1]): 7790 nM
- IC50 (cGAS [2]): 118 nM

Compound: Cn1c2c(c3c(OCC#N)cc(Cl)c(Cl)c31)CC(=O)NC[C@H]2CC(C)(C)O (single isomer, unassigned) [Example 110, (R)-2-((7,8-Dichloro-5-(2-hydroxy-2-methylpropyl)-6-methyl-2-oxo-1,2,3,4,5,6-hexahydroazepino[4,5-b]indol-10-yl)oxy)acetonitrile or (S)-2-((7,8-Dichloro-5-(2-hydroxy-2-methylpropyl)-6-methyl-2-oxo-1,2,3,4,5,6-hexahydroazepino[4,5-b]indol-10-yl)oxy)acetonitrile]
- IC50 (cGAS [1]): 3120 nM
- IC50 (cGAS [2]): 2610 nM

Compound: COCC[C@@H]1CNC(=O)[C@H](C)c2c1[nH]c1c(Cl)c(Cl)cc(NCCO)c21 (racemic) [Example 170, cis 7,8-Dichloro-10-((2-hydroxyethyl)amino)-5-(2-methoxyethyl)-1-methyl-3,4,5,6-tetrahydroazepino[4,5-b]indol-2(1H)-one]
- IC50 (cGAS [1]): 473 nM
- IC50 (cGAS [2]): 27.7 nM

Compound: CC1C(=O)NCCc2[nH]c3c(Cl)c(Cl)cc(NC4CCOC4)c3c21 (stereo in doubt) [Example 66, 7,8-Dichloro-1-methyl-10-(((R)-tetrahydrofuran-3-yl)amino)-3,4,5,6-tetrahydroazepino[4,5-b]indol-2(1H)-one]
- IC50 (cGAS [1]): 4150 nM
- IC50 (cGAS [2]): 37.5 nM

Compound: C[C@@H]1C(=O)NCCc2[nH]c3c(Cl)c(Cl)cc(NC(=O)CO)c3c21 (single isomer, unassigned) [Example 12A]
- IC50 (cGAS [1]): 356 nM
- IC50 (cGAS [2]): 16.3 nM

Compound: CNC(=O)CC1CNC(=O)Cc2c1[nH]c1c(Cl)c(Cl)cc(-c3cnn(C)n3)c21 (stereo not drawn) [Example 6, 2-(7,8-Dichloro-10-(2-methyl-2H-1,2,3-triazol-4-yl)-2-oxo-1,2,3,4,5,6-hexahydroazepino[4,5-b]indol-5-yl)-N-methylacetamide]
- IC50 (cGAS [1]): > 10000 nM
- IC50 (cGAS [2]): 15.6 nM

Compound: CC1C(=O)NCCc2[nH]c3c(Cl)c(Cl)cc(NCc4cocn4)c3c21 (stereo in doubt) [Example 59, (S′)-7,8-Dichloro-1-methyl-10-((oxazol-4-ylmethyl)amino)-3,4,5,6-tetrahydroazepino[4,5-b]indol-2(1H)-one Or (R)-7,8-Dichloro-1-methyl-10-((oxazol-4-ylmethyl)amino)-3,4,5,6-tetrahydroazepino[4,5-b]indol-2(1H)-one]
- IC50 (cGAS [1]): > 10000 nM
- IC50 (cGAS [2]): 2000 nM

Compound: Cc1noc(-c2cc(Cl)c(Cl)c3[nH]c4c(c23)CC(=O)NCC4)n1 [Example 25, 7,8-Dichloro-10-(3-methyl-1,2,4-oxadiazol-5-yl)-3,4,5,6-tetrahydroazepino[4,5-b]indol-2(1H)-one]
- IC50 (cGAS [1]): > 10000 nM
- IC50 (cGAS [2]): 27.1 nM

Compound: CC1C(=O)NCCc2[nH]c3c(Cl)c(Cl)c(F)c(NCCO)c3c21 (racemic) [Example 52, 7,8-Dichloro-9-fluoro-10-((2-hydroxyethyl)amino)-1-methyl-3,4,5,6-tetrahydroazepino[4,5-b]indol-2(1H)-one]
- IC50 (cGAS [1]): 2220 nM
- IC50 (cGAS [2]): 29.1 nM

Compound: C[C@@H]1CNC(=O)[C@@H](C)c2c1[nH]c1c(Cl)c(Cl)cc(NC(=O)CO)c21 (single isomer, unassigned) [Example 161, N-((1S,5R)-7,8-Dichloro-1,5-dimethyl-2-oxo-1,2,3,4,5,6-hexahydroazepino[4,5-b]indol-10-yl)-2-hydroxyacetamide or N-((1R,5S)-7,8-Dichloro-1,5-dimethyl-2-oxo-1,2,3,4,5,6-hexahydroazepino[4,5-b]indol-10-yl)-2-hydroxyacetamide]
- IC50 (cGAS [1]): > 10000 nM
- IC50 (cGAS [2]): 3730 nM

Compound: N#CCc1cc(Cl)c(Cl)c2[nH]c3c(c12)CC(=O)NCC3CCO (stereo not drawn) [Example 113, 2-(7,8-Dichloro-5-(2-hydroxyethyl)-2-oxo-1,2,3,4,5,6-hexahydroazepino[4,5-b]indol-10-yl)acetonitrile]
- IC50 (cGAS [1]): 1740 nM
- IC50 (cGAS [2]): 37.3 nM

Compound: CC1C(=O)NCCc2[nH]c3c(Cl)c(Cl)cc(OCCO)c3c21 (stereo not drawn) [Example 18, 7,8-Dichloro-10-(2-hydroxyethoxy)-1-methyl-3,4,5,6-tetrahydroazepino[4,5-b]indol-2(1H)-one]
- IC50 (cGAS [1]): 2070 nM
- IC50 (cGAS [2]): 70.9 nM

Compound: C[C@@H](O)CNc1cc(Cl)c(Cl)c2c1c1c(n2C)CCNC(=O)[C@@H]1C (single isomer, unassigned) [Example 100]
- IC50 (cGAS [1]): 1130 nM
- IC50 (cGAS [2]): 30.4 nM

Compound: CC1C(=O)NCCc2[nH]c3c(Cl)c(Cl)cc(NCCO)c3c21 (single isomer, unassigned) [Example 50, 7,8-Dichloro-10-((2-hydroxyethyl)amino)-1-methyl-3,4,5,6-tetrahydroazepino[4,5-b]indol-2(1H)-one]
- IC50 (cGAS [1]): 286 nM
- IC50 (cGAS [2]): 9.62 nM

Compound: Cn1ncc(-c2cc(Cl)c(Cl)c3[nH]c4c(c23)CC(=O)NCC4CCO)n1 (racemic) [Example 8, 7,8-Dichloro-5-(2-hydroxyethyl)-10-(2-methyl-2H-1,2,3-triazol-4-yl)-3,4,5,6-tetrahydroazepino[4,5-b]indol-2(1H)-one]
- IC50 (cGAS [1]): 420 nM
- IC50 (cGAS [2]): 19 nM

Compound: C[C@H](O)C(=O)Nc1cc(Cl)c(Cl)c2c1c1c(n2C)CCNC(=O)[C@H]1C (single isomer, unassigned) [Example 94]
- IC50 (cGAS [1]): 663 nM
- IC50 (cGAS [2]): 24.7 nM

Compound: Cn1c2c(c3c(CC#N)cc(Cl)c(Cl)c31)CC(=O)NC[C@H]2CCO (single isomer, unassigned) [Example 122]
- IC50 (cGAS [1]): 2940 nM
- IC50 (cGAS [2]): 934 nM

Compound: CC1C(=O)NCCc2[nH]c3c(Cl)c(Cl)cc(OC[C@H]4CCO4)c3c21 (stereo partly drawn) [Example 180, 7,8-Dichloro-1-methyl-10-(((R)-oxetan-2-yl)methoxy)-3,4,5,6-tetrahydroazepino[4,5-b]indol-2(1H)-one]
- IC50 (cGAS [1]): 793 nM
- IC50 (cGAS [2]): 23.7 nM

Compound: COCC[C@H]1CNC(=O)[C@H](C)c2c1[nH]c1c(Cl)c(Cl)cc(NCCO)c21 (single isomer, unassigned) [Example 172]
- IC50 (cGAS [1]): > 10000 nM
- IC50 (cGAS [2]): 1810 nM

Compound: C[C@H](O)C(=O)Nc1cc(Cl)c(Cl)c2c1c1c(n2C(F)F)CCNC(=O)[C@H]1C (single isomer, unassigned) [Example 143]
- IC50 (cGAS [1]): > 10000 nM
- IC50 (cGAS [2]): 1510 nM

Compound: Cn1c2c(c3c(CC#N)cc(Cl)c(Cl)c31)CC(=O)NC[C@H]2CC(C)(C)O (single isomer, unassigned) [Example 129]
- IC50 (cGAS [1]): 1320 nM
- IC50 (cGAS [2]): 1550 nM

Compound: CC(C)(O)C[C@@H]1CNC(=O)Cc2c1[nH]c1c(Cl)c(Cl)cc(OCC#N)c21 (single isomer, unassigned) [Example 108]
- IC50 (cGAS [1]): 676 nM
- IC50 (cGAS [2]): 25.7 nM
